Data from the supplement of paper PMC10307832.

Key:
Test in all cases: relative viability (nuclei count vs DMSO), 5 days (fraction); higher = more cells survive
RERF-LC-KJ = test system: RERF-LC-KJ
How it was run: (§1)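 One day after seeding in 1536-well plates, lung cancer cell lines were dosed by pin tool. Dosing was either single-drug or a fixed anchor-drug dose plus five library-drug doses (not always all listed) in √10 steps. After 5 days, nuclei were stained in one fix-and-stain step and counted on 4× images, and relative viability is the nuclei count of treated wells over that of vehicle wells, given as the median of duplicate plates.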

PC-3 [JPC-3] = test system: PC-3 [JPC-3]
How it was run: as §1

LK-2 = test system: LK-2
How it was run: as §1

COR-L23 = test system: COR-L23
How it was run: as §1

NCI-H23 = test system: NCI-H23
How it was run: as §1

UMC-11 = test system: UMC-11
How it was run: as §1

A-427 = test system: A-427
How it was run: as §1

HCC-78 = test system: HCC-78
How it was run: as §1

NCI-H647 = test system: NCI-H647
How it was run: as §1

NCI-H520 = test system: NCI-H520
How it was run: as §1

NCI-H2347 = test system: NCI-H2347
How it was run: as §1

With `Cc1cn(-c2cc(NC(=O)c3ccc(C)c(Nc4nccc(-c5cccnc5)n4)c3)cc(C(F)(F)F)c2)cn1` [Nilotinib] + C[C@@H](Oc1cc(-c2cnn(C3CCNCC3)c2)cnc1N)c1c(Cl)ccc(F)c1Cl [Crizotinib] (partner 1 µM) as the compound, how does the relative viability (RERF-LC-KJ; first compound 0.001 µM) read?
Its relative viability is 0.872.

What about the relative viability (RERF-LC-KJ; first compound 0.003162 µM) of the same compound?
The relative viability was 0.891.

What about the relative viability (RERF-LC-KJ; first compound 0.01 µM) of the same compound?
The relative viability was 0.917.

And the relative viability (RERF-LC-KJ; first compound 0.03162 µM)?
Its relative viability is 0.814.

What about the relative viability (RERF-LC-KJ; first compound 0.1 µM) of the same compound?
The relative viability was 0.867.

What about the relative viability (PC-3 [JPC-3]; first compound 0.001 µM) of the same compound?
Its relative viability is 0.987.

What about the relative viability (PC-3 [JPC-3]; first compound 0.003162 µM) of the same compound?
Its relative viability is 1.23.

What about the relative viability (PC-3 [JPC-3]; first compound 0.01 µM) of the same compound?
The relative viability was 1.06.

What about the relative viability (PC-3 [JPC-3]; first compound 0.03162 µM) of the same compound?
The relative viability was 0.882.

What about the relative viability (PC-3 [JPC-3]; first compound 0.1 µM) of the same compound?
The relative viability was 0.88.

And the relative viability (LK-2; first compound 0.001 µM)?
Its relative viability is 0.244.

And the relative viability (LK-2; first compound 0.003162 µM)?
Its relative viability is 0.276.

What about the relative viability (LK-2; first compound 0.01 µM) of the same compound?
Its relative viability is 0.206.

And the relative viability (LK-2; first compound 0.03162 µM)?
The relative viability was 0.251.

And the relative viability (LK-2; first compound 0.1 µM)?
Its relative viability is 0.241.

What about the relative viability (COR-L23; first compound 0.001 µM) of the same compound?
Its relative viability is 0.601.

What about the relative viability (COR-L23; first compound 0.003162 µM) of the same compound?
The relative viability was 0.625.

And the relative viability (COR-L23; first compound 0.01 µM)?
Its relative viability is 0.848.

What about the relative viability (COR-L23; first compound 0.03162 µM) of the same compound?
Its relative viability is 0.465.

And the relative viability (COR-L23; first compound 0.1 µM)?
The relative viability was 0.625.

And the relative viability (NCI-H23; first compound 0.001 µM)?
Its relative viability is 0.471.

And the relative viability (NCI-H23; first compound 0.003162 µM)?
The relative viability was 0.442.

What about the relative viability (NCI-H23; first compound 0.01 µM) of the same compound?
Its relative viability is 0.6.

What about the relative viability (NCI-H23; first compound 0.03162 µM) of the same compound?
The relative viability was 0.328.

What about the relative viability (NCI-H23; first compound 0.1 µM) of the same compound?
Its relative viability is 0.378.

And the relative viability (UMC-11; first compound 0.001 µM)?
The relative viability was 0.561.

And the relative viability (UMC-11; first compound 0.003162 µM)?
Its relative viability is 0.525.

What about the relative viability (UMC-11; first compound 0.01 µM) of the same compound?
The relative viability was 0.585.

What about the relative viability (UMC-11; first compound 0.1 µM) of the same compound?
Its relative viability is 0.68.

And the relative viability (A-427; first compound 0.001 µM)?
Its relative viability is 0.715.

And the relative viability (A-427; first compound 0.01 µM)?
The relative viability was 1.25.

And the relative viability (A-427; first compound 0.03162 µM)?
The relative viability was 0.548.

And the relative viability (A-427; first compound 0.1 µM)?
The relative viability was 0.546.

And the relative viability (HCC-78; first compound 0.001 µM)?
Its relative viability is 0.351.

And the relative viability (HCC-78; first compound 0.003162 µM)?
Its relative viability is 0.239.

And the relative viability (HCC-78; first compound 0.01 µM)?
Its relative viability is 0.432.

What about the relative viability (HCC-78; first compound 0.03162 µM) of the same compound?
Its relative viability is 0.333.

What about the relative viability (HCC-78; first compound 0.1 µM) of the same compound?
Its relative viability is 0.361.

And the relative viability (NCI-H647; first compound 0.001 µM)?
Its relative viability is 1.05.

And the relative viability (NCI-H647; first compound 0.003162 µM)?
The relative viability was 1.34.

What about the relative viability (NCI-H647; first compound 0.03162 µM) of the same compound?
The relative viability was 0.749.

What about the relative viability (NCI-H647; first compound 0.1 µM) of the same compound?
Its relative viability is 0.716.

And the relative viability (NCI-H520; first compound 0.001 µM)?
The relative viability was 0.656.

And the relative viability (NCI-H520; first compound 0.01 µM)?
Its relative viability is 0.866.

What about the relative viability (NCI-H520; first compound 0.03162 µM) of the same compound?
Its relative viability is 0.483.

What about the relative viability (NCI-H520; first compound 0.1 µM) of the same compound?
The relative viability was 0.678.

What about the relative viability (NCI-H2347; first compound 0.001 µM) of the same compound?
The relative viability was 0.698.

What about the relative viability (NCI-H2347; first compound 0.003162 µM) of the same compound?
Its relative viability is 0.731.

What about the relative viability (NCI-H2347; first compound 0.01 µM) of the same compound?
Its relative viability is 0.686.
